Data on 34 compounds can be found in the Kinase Knowledgebase extract (Sharma et al. 2016).

pIC50: −log10 of the molar value.

For this assay, the target named is PIK3CA (human) (UniProt P42336). As to the kind of experiment: Inhibition of PIK3CA Kinase Activity.
PIK3CA (human), sequence (P42336 whole entry, looked up): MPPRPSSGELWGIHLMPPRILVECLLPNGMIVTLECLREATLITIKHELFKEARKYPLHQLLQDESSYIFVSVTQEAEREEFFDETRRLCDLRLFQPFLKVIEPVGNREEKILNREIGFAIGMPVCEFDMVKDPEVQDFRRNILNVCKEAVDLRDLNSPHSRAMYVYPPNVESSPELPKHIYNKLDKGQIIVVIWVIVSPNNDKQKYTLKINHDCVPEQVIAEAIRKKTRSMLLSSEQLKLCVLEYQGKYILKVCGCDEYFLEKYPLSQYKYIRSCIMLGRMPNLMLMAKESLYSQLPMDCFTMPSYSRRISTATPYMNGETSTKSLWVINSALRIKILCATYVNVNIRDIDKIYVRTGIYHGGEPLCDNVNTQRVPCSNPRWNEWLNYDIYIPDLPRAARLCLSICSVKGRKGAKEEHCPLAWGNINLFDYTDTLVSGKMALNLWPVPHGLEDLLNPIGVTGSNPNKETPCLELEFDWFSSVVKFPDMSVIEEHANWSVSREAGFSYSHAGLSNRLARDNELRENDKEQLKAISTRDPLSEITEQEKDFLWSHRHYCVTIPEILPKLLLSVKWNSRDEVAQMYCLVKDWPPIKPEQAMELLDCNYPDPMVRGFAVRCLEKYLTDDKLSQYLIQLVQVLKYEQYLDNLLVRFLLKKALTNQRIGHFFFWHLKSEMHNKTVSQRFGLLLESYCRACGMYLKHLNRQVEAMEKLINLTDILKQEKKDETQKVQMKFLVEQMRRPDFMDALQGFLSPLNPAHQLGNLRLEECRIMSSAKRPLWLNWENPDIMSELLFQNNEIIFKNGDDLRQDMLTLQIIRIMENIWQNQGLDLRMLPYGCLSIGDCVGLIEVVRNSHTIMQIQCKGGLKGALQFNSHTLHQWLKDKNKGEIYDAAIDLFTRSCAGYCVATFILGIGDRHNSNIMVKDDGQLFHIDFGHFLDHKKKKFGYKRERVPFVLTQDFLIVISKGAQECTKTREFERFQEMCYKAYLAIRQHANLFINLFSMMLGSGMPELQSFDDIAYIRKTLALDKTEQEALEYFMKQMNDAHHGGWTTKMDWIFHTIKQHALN
`CC(C)n1c(OC2CCCC2)nc2c(-c3cnc(N)nc3)nc(N3CCOCC3)nc21` showed a pIC50 of 6.00 to 7.00. Under `CCC(C)n1c(SC)nc2c(-c3cnc(N)nc3)nc(N3CCOCC3)nc21` (centres undefined) stands 6.00 to 7.00.

Compound `CC(C)n1c(-c2ccsc2)nc2c(-c3cnc(N)nc3)nc(N3CCOCC3)nc21` had a pIC50 of over 7.00. The value for `CC1CCCCC1n1c(N(C)C)nc2c(-c3cnc(N)nc3)nc(N3CCOCC3)nc21` (centres undefined) was 6.00 to 7.00. Under `CC(C)Nc1nc2c(-c3cnc(N)nc3)nc(N3CCOCC3)nc2n1C1CCCCC1C` (centres undefined) stands over 7.00. The value for `CCC(C)n1c(NC(C)C)nc2c(-c3cnc(N)nc3)nc(N3CCOCC3)nc21` (centres undefined) was over 7.00; that for `CCOc1nc2c(-c3cnc(N)nc3)nc(N3CCOCC3)nc2n1C(C)CC` (centres undefined) was 6.00 to 7.00; that for `CCC(C)n1c(NCCN(C)C)nc2c(-c3cnc(N)nc3)nc(N3CCOCC3)nc21` (centres undefined) was 6.00 to 7.00. In turn, `CC(C)Nc1nc2c(-c3cnc(N)nc3)nc(N3CCOCC3)nc2n1C1CCCC1` had a negative-log IC50 (pIC50) of over 7.00.

Consider `CCC(C)n1c(N2CCCC2C)nc2c(-c3cnc(N)nc3)nc(N3CCOCC3)nc21` (centres undefined), for which the pIC50 was 6.00 to 7.00. `CCC(C)n1c(SC)nc2c(-c3cnc(N)cn3)nc(N3CCOCC3)nc21` (centres undefined) showed a negative-log IC50 (pIC50) of 6.00 to 7.00. The value for `CN1CCN(c2nc3c(-c4cnc(N)nc4)nc(N4CCOCC4)nc3n2C2CCCC2)CC1` was 6.00 to 7.00; that for `Nc1ncc(-c2nc(N3CCOCC3)nc3c2nc(NCC2CC2)n3C2CCCC2)cn1` was over 7.00; that for `CCC(C)n1c(N(C)C)nc2c(-c3cnc(N)nc3)nc(N3CCOCC3)nc21` (centres undefined) was over 7.00. Under `CCC(C)n1c(N2CCc3ccccc3C2)nc2c(-c3cnc(N)nc3)nc(N3CCOCC3)nc21` (centres undefined) stands 6.00 to 7.00. The value for `CC(C)Nc1nc2c(-c3cnc(N)nc3)nc(N3CCOCC3)nc2n1C(C)C` was over 7.00; that for `CCC(C)n1c(NCCOC)nc2c(-c3cnc(N)nc3)nc(N3CCOCC3)nc21` (centres undefined) was over 7.00. The compound `CCC(C)n1c(Sc2ccccc2)nc2c(-c3cnc(N)nc3)nc(N3CCOCC3)nc21` (centres undefined) showed a pIC50 of 6.00 to 7.00. As for `CSc1nc2c(-c3cnc(N)nc3)nc(N3CCOCC3)nc2n1C(C)C`, the pIC50 was over 7.00. Under `CC(=O)Nc1cccc(-c2nc3c(-c4cnc(N)nc4)nc(N4CCOCC4)nc3n2C(C)C)c1` stands over 7.00.

Regarding `CCSc1nc2c(-c3cnc(N)nc3)nc(N3CCOCC3)nc2n1C(C)C`, the pIC50 was over 7.00.

In turn, `CCC(C)n1c(N2CCN(CC)CC2)nc2c(-c3cnc(N)nc3)nc(N3CCOCC3)nc21` (centres undefined) gave a pIC50 of 6.00 to 7.00. Under `CC(C)n1c(-c2ccccc2)nc2c(-c3cnc(N)cn3)nc(N3CCOCC3)nc21` stands 6.00 to 7.00. Under `Nc1ncc(-c2nc(N3CCOCC3)nc3c2nc(-c2ccsc2)n3C2CCCC2)cn1` stands over 7.00. Under `CN(C)c1nc2c(-c3cnc(N)nc3)nc(N3CCOCC3)nc2n1C1CCCC1` stands over 7.00. Compound `CC(C)n1c(-c2ccccc2)nc2c(-c3cnc(N)nc3)nc(N3CCOCC3)nc21` gave a pIC50 of over 7.00. The value for `CCSc1nc2c(-c3cnc(N)cn3)nc(N3CCOCC3)nc2n1C(C)CC` (centres undefined) was 6.00 to 7.00; that for `CCC(C)n1c(-c2ccccc2)nc2c(-c3cnc(N)nc3)nc(N3CCOCC3)nc21` (centres undefined) was 6.00 to 7.00; that for `CCC(C)n1c(-c2ccsc2)nc2c(-c3cnc(N)nc3)nc(N3CCOCC3)nc21` (centres undefined) was over 7.00. Consider `CCC(C)n1c(N2CCCC2)nc2c(-c3cnc(N)nc3)nc(N3CCOCC3)nc21` (centres undefined), for which the pIC50 is 6.00 to 7.00. Compound `CC(C)n1c(-c2ccc3c(c2)OCO3)nc2c(-c3cnc(N)nc3)nc(N3CCOCC3)nc21` showed a pIC50 of over 7.00. As to `CCC(C)n1c(NC(C)C)nc2c(-c3cnc(N)cn3)nc(N3CCOCC3)nc21` (centres undefined), the negative logarithm of the IC50 (pIC50) is 6.00 to 7.00. Turning to `CCCCNc1nc2c(-c3cnc(N)nc3)nc(N3CCOCC3)nc2n1C1CCCC1`, the negative logarithm of the IC50 (pIC50) is over 7.00.

In the case of `CCCCNc1nc2c(-c3cnc(N)nc3)nc(N3CCOCC3)nc2n1C(C)CC` (centres undefined), the pIC50 was over 7.00.
